# Structures can show the parent of a compound that is named as a salt.
# System: human basophils
# Test: Inhibition of histamine release from immunologically stimulated human basophils
# Format: cell-based
# Details: Homo sapiens, concentration causing 50% inhibition of histamine release, by linear regression; active if IC50 ≦ 48 µM
# Procedure, shortened: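 Leukocytes from sedimented human blood, washed in Tris-A and resuspended in Tris-ACM, were challenged with anti-IgE or antigen, with or without compound, for 60 min at 37 °C. Released histamine was measured fluorometrically after OPT derivatization and expressed as percent of total (perchloric acid lysate), corrected for spontaneous release.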
row,SMILES,IC50 [nM]
1,"Cc1cc(C)cc(Nc2nccc(-c3cccnc3)n2)c1 [N-(3,5-Dimethylphenyl)-4-(3-pyridinyl)-2-pyrimidinamine, sulfate]",3000

# Same assay, conditions: Homo sapiens, concentration causing 50% inhibition of histamine release, by linear regression; active if IC50 ≦ 48 µM; read-out: IC50
row,IC50 [nM],SMILES
1,48000,c1ccc(Nc2nccc(-c3ccco3)n2)cc1 [4-(2-Furanyl)-N-phenyl-2-pyrimidinamine]
2,2800,CCc1ccc(Nc2nccc(-c3cnccn3)n2)cc1 [N-(4-Ethylphenyl)-4-pyrazinyl-2-pyrimidinamine]
3,9800,COc1ccccc1Nc1nccc(-c2cccnc2)n1 [N-(2-Methoxyphenyl)-4-(3-pyridinyl)-2-pyrimidinamine]
4,3300,Fc1cccc(Nc2nccc(-c3cccnc3)n2)c1 [N-(3-Fluorophenyl)-4-(3-pyridinyl)-2-pyrimidinamine]
5,6900,COc1ccc(C)cc1Nc1nccc(-c2ccncc2)n1 [N-(2-Methoxy-5-methylphenyl)-4-(4-pyridinyl)-2-pyrimidinamine]
6,10500,"Cc1cc(C)c(Nc2nccc(-c3ccncc3)n2)c(C)c1 [4-(4-Pyridinyl)-N-(2,4,6-trimethylphenyl)-2-pyrimidinamine]"
7,11400,"CC(=NO)c1ccc(Nc2nccc(-c3cccnc3)n2)cc1 [1-[4-[[4-(3-Pyridinyl)-2-pyrimidinyl]amino]phenyl]ethanone, oxime]"
8,39800,"Cc1ccc(CNc2nccc(-c3ccccn3)n2)cc1C [N-[(3,4-Dimethylphenyl)methyl]-4-(2-pyridinyl)-2-pyrimidinamine]"
9,20200,"Cc1cccc(Nc2nccc(-c3ccncc3)n2)c1C [N-(2,3-Dimethylphenyl)-4-(4-pyridinyl)-2-pyrimidinamine]"
10,3000,"CCOC(=O)c1cccc(Nc2nccc(-c3ccccn3)n2)c1 [3-[[4-(2-Pyridinyl)-2-pyrimidinyl]amino]benzoic acid, ethyl ester]"
11,< 48000,"Cc1ccc(C)c(Nc2nccc(-c3ccccn3)n2)c1 [N-(2,5-Dimethylphenyl)-4-(2-pyridinyl)-2-pyrimidinamine]"
12,23500,Oc1ccccc1Nc1nccc(-c2cccnc2)n1 [2-[[4-(3-Pyridinyl)-2-pyrimidinyl]amino]phenol]
13,4400,"Cc1cc(C)cc(Nc2nccc(-c3ccncc3)n2)c1 [N-(3,5-Dimethylphenyl)-4-(4-pyridinyl)-2-pyrimidinamine]"
14,27500,"COC(=O)c1ccc(Nc2nccc(-c3ccncc3)n2)cc1 [4-[[4-(4-Pyridinyl)-2-pyrimidinyl]amino]benzoic acid, methyl ester]"
15,9300,Cc1ccc(Nc2nccc(-c3cccnc3)n2)cc1Cl [N-(3-Chloro-4-methylphenyl)-4-(3-pyridinyl)-2-pyrimidinamine]
16,2100,CCc1ccc(Nc2nccc(-c3ccccn3)n2)cc1 [N-(4-Ethylphenyl)-4-(2-pyridinyl)-2-pyrimidinamine]
17,800,"CC(N)c1ccc(Nc2nccc(-c3cccnc3)n2)cc1 (centres unmarked) [N-[4-[1-Aminoethyl)phenyl]-4-(3-pyridinyl)-2-pyrimidinamine, trihydrochloride]"
18,37700,"Cc1cc(-c2ccncc2)nc(Nc2ccc(N(C)C)cc2)n1 [N,N-Dimethyl-N'-[4-methyl-6-(4-pyridinyl)-2-pyrimidinyl]-1,4-benzenediamine]"
19,20300,"CCOC(=O)c1cccc(Nc2nccc(-c3cccnc3)n2)c1 [3-[[4-(3-Pyridinyl)-2-pyrimidinyl]amino]benzoic acid, ethyl ester]"
20,200,NS(=O)(=O)c1ccc(Nc2nccc(-c3cccnc3)n2)cc1 [4-[[4-(3-pyridinyl)-2-pyrimidinyl]amino]benzenesulfonamide]
21,1700,CCc1cccc(Nc2nccc(-c3cccnc3)n2)c1 [N-(3-Ethylphenyl)-4-(3-pyridinyl)-2-pyrimidinamine]
22,9400,Cc1cccc(Nc2nccc(-c3ccncc3)n2)c1 [N-(3-Methylphenyl)-4-(4-pyridinyl)-2-pyrimidinamine]
23,1100,CC(C)c1ccc(Nc2nccc(-c3cccnc3)n2)cc1 [N-[4-(1-Methylethyl)phenyl]-4-(3-pyridinyl)-2-pyrimidinamine]
24,1500,CN(C)CCOc1ccc(Nc2nccc(-c3ccncc3)n2)cc1 [N-[4-[2-(Dimethylamino)ethoxy]phenyl]-4-(4-pyridinyl)-2-pyrimidinamine]
25,2000,Cc1cccc(Nc2nccc(-c3ccc(C)o3)n2)c1 [4-(5-Methyl-2-furanyl)-N-(3-methylphenyl)-2-pyrimidinamine]
26,33300,"COc1ccc(Nc2nccc(-c3cc[n+](C)cc3)n2)cc1 [4-[2-[(4-Methoxyphenyl)amino]-4-pyrimidinyl]-1-methylpyridinium, iodide]"
27,2200,c1ccc(-c2ccnc(NC3CCCC3)n2)nc1 [N-Cyclopentyl-4-(2-pyridinyl)-2-pyrimidinamine]

# Continued, compound first:
row,SMILES,IC50 [nM]
1,"Cc1cccc(Nc2nccc(-c3cc(C)oc3C)n2)c1 [4-(2,5-Dimethyl-3-furanyl)-N-(3-methylphenyl)-2-pyrimidinamine]",28500
2,Cc1cnc(Nc2ccccc2)nc1-c1ccco1 [4-(2-Furanyl)-5-methyl-N-phenyl-2-pyrimidinamine],17700
3,CCc1ccc(Nc2nc(C)cc(-c3ccc(C)nc3)n2)cc1 [N-(4-Ethylphenyl)-6-methyl-4-(6-methyl-3-pyridinyl)-2-pyrimidinamine],19100
4,CCc1ccc(Nc2nccc(-c3ccnc4ccccc34)n2)cc1 [N-(4-Ethylphenyl)-4-(4-quinolinyl)-2-pyrimidinamine],4000
5,CC(=O)N(C)c1ccc(Nc2nccc(-c3cccnc3)n2)cc1 [N-Methyl-N-[4-[[4-(3-pyridinyl)-2-pyrimidinyl]amino]phenyl]acetamide],1100
6,Clc1cccc(Nc2nccc(-c3ccccn3)n2)c1 [N-(3-Chlorophenyl)-4-(2-pyridinyl)-2-pyrimidinamine],1300
7,c1cc(Nc2nccc(-c3cccs3)n2)cc(-n2ccnc2)c1 [N-[3-(1H-Imidazol-1-yl)phenyl]-4-(2-thienyl)-2-pyrimidinamine],200
8,"CN(C)c1ccc(Nc2nccc(-c3ccco3)n2)cc1 [N'-[4-(2-Furanyl)-2-pyrimidinyl]-N,N-dimethyl-1,4-benzenediamine]",1900
9,CN1CCN(c2ccc(Nc3nccc(-c4cccnc4)n3)cc2)CC1 [N-[4-(4-Methyl-1-piperazinyl)phenyl]-4-(3-pyridinyl)-2-pyrimidinamine],1500
10,c1ccc(Nc2nccc(-c3c[nH]c4ccccc34)n2)cc1 [4-(1H-Indol-3-yl)-N-phenyl-2-pyrimidinamine],3000
11,COc1ccc(Nc2nccc(-c3ccncc3)n2)cc1 [N-(4-Methoxyphenyl)-4-(4-pyridinyl)-2-pyrimidinamine],1000
12,CC(=O)Nc1cccc(Nc2nccc(-c3ccncc3)n2)c1 [N-[3-[[4-(4-Pyridinyl)-2-pyrimidinyl]amino]-phenyl]acetamide],2100
13,CCN(CC)CCOc1cccc(Nc2nccc(-c3cccs3)n2)c1 [N-[3-[2-(Diethylamino)ethoxy]phen-yl]-4-(2-thienyl)-2-pyrimidinamine],600
14,CCc1ccc(Nc2nccc(-c3ccc(C)s3)n2)cc1 [N-(4-Ethylphenyl)-4-(5-methyl-2-thienyl)-2-pyrimidinamine],36300
15,COc1cccc(Nc2nccc(-c3ccsc3)n2)c1 [N-(3-Methoxyphenyl)-4-(3-thienyl)-2-pyrimidinamine],1700
16,c1cc(Nc2nccc(-c3ccco3)n2)cc(-n2ccnc2)c1 [4-(2-Furanyl)-N-[3-(1H-imidazol-1-yl)phenyl]-2-pyrimidinamine],800
17,"CCc1ccc(Nc2nccc(-c3cc(C)oc3C)n2)cc1 [4-(2,5-Dimethyl-3-furanyl)-N-(4-ethylphenyl)-2-pyrimidinamine]",19200
18,CN(C)CCOc1ccc(Nc2nccc(-c3cccnc3)n2)cc1 [N-[4-[2-(Dimethylamino)ethoxy]phenyl]-4-(3-pyridinyl)-2-pyrimidinamine],500
19,CNC(=O)c1ccc(Nc2nccc(-c3cccnc3)n2)cc1 [N-Methyl-4-[[4-(3-pyridinyl)-2-pyrimidinyl]amino]benzamide],4600
20,"Cc1ccc(Nc2nccc(-c3ccccn3)n2)cc1C [N-(3,4-Dimethylphenyl)-4-(2-pyridinyl)-2-pyrimidinamine]",5900
21,"CN(C)c1ccccc1Nc1nccc(-c2ccncc2)n1 [N,N-Dimethyl-N'-[4-(4-pyridinyl)-2-pyrimidinyl]-1,2-benzenediamine, fumarate]",36200
22,CCc1cccc(Nc2nccc(-c3ccccn3)n2)c1 [N-(3-Ethylphenyl)-4-(2-pyridinyl)-2-pyrimidinamine],1400

# Same assay, conditions: concentration causing 50% inhibition of histamine release, by linear regression; active if IC50 ≦ 48 µM; read-out: IC50
row,IC50 [nM],SMILES
1,2700,CN(C)c1ccc(Nc2nccc(-c3ccccn3)n2)cc1 [N-[4-(Dimethylamino)phenyl]-4-(2-pyridinyl)-2-pyrimidinamine]
2,2400,"Nc1ccc(Nc2nccc(-c3ccncc3)n2)cc1 [N-[4-(4-Pyridinyl)-2-pyrimidinyl)-1,4-benzenediamine]"

row,SMILES,IC50 [nM]
1,"c1ccc(Nc2nccc(-c3ccncc3)n2)cc1 [N-Phenyl-4-(4-pyridinyl)-2-pyrimidinamine, (Z)-2-butenedioat] [N-Phenyl-4-(4-pyridinyl)-2-pyrimidinamine, (Z)-2-butenedioate (1:1)]",1000

# Same assay, conditions: concentration causing 50% inhibition of histamine release, by linear regression; active if IC50 ≦ 48 µM; sulfate
row,SMILES,IC50 [nM]
1,"FC(F)(F)c1cccc(Nc2nccc(-c3cccnc3)n2)c1 [4-(3-Pyridinyl)-N-[3-(trifluoromethyl)phenyl]-2-pyrimidinamine, sulfate]",2600

# Same assay, conditions: concentration causing 50% inhibition of histamine release, by linear regression; active if IC50 ≦ 48 µM; trihydrochloride; read-out: IC50
row,IC50 [nM],SMILES
1,1000,"CN(C)c1cccc(Nc2nccc(-c3ccccn3)n2)c1 [N,N-Dimethyl-N'-[4-(2-pyridinyl)-2-pyriziiidin-yl]-1,3-benzenediamine, trihydrochloride]"
2,1500,"CN(C)c1ccc(Nc2nccc(-c3cccnc3)n2)cc1 [N,N-Dimethyl-N'-[4-(3-pyridinyl)-2-pyrimidinyl]-1,4-benzenediamine, trihydrochloride]"

# Source: EP0233461B2, “4,5,6-Substituted-2-pyrimidinamines” (AMERICAN CYANAMID COMPANY, priority 1986, dated 1987)
